Laboratory results reported in ChEMBL document CHEMBL5126592, “Design, synthesis and activity against drug-resistant bacteria evaluation of C-20, C-23 modified 5-O-mycaminosyltylonolide derivatives” (Eur J Med Chem, 2022).
≈ marks a conversion by molar mass, not a printed value.

Columns and labels:
[1] = Genotoxicity in Salmonella typhimurium TA102 assessed as number of revertants at 4x10^-5 mg/plate incubated for 72 hrs in presence of liver S9 fraction by Ames test (reference value: 465.33 +/- 18.04); assay type: toxicity, subcellular; conditions: salmonella enterica subsp. enterica serovar typhimurium, s9, 72 h
Escherichia coli [2] = experiment: Antibacterial activity against Escherichia coli ATCC 25922 incubated for 16 to 20 hrs by broth microdilution method; assay type: functional; conditions: time 16-20 hrs
[3] = Genotoxicity in Salmonella typhimurium TA1535 assessed as number of revertants at 8x10^-6 mg/plate incubated for 72 hrs in absence of liver S9 fraction by Ames test (reference value: 14.33 +/- 0.58); assay type: toxicity; conditions: salmonella enterica subsp. enterica serovar typhimurium, s9, 72 h
Escherichia coli [4] = experiment: Antibacterial activity against Escherichia coli ATCC 25922 at pH 6.6 incubated for 16 to 20 hrs by broth microdilution method; assay type: functional; conditions: time 16-20 hrs
Staphylococcus aureus [5] = experiment: Antibacterial activity against Staphylococcus aureus ATCC 29213 at pH 8.6 incubated for 16 to 20 hrs in presence of 5% foetal bovine serum by broth microdilution method; assay type: functional; conditions: time 16-20 hrs
Staphylococcus aureus [6] = experiment: Antibacterial activity against Staphylococcus aureus ATCC 29213 incubated for 16 to 20 hrs using 10^3 CFU/ml bacterial inoculum by broth microdilution method; assay type: functional; conditions: time 16-20 hrs
Staphylococcus aureus [7] = experiment: Antibacterial activity against Staphylococcus aureus ATCC 29213 at pH 7.6 incubated for 16 to 20 hrs by broth microdilution method; assay type: functional; conditions: time 16-20 hrs
[8] = Genotoxicity in Salmonella typhimurium TA100 assessed as number of revertants at 2x10^-4 mg/plate incubated for 72 hrs in presence of liver S9 fraction by Ames test (reference value: 204.33 +/- 8.14); assay type: toxicity, subcellular; conditions: salmonella enterica subsp. enterica serovar typhimurium, s9, 72 h
Escherichia coli [9] = experiment: Antibacterial activity against Escherichia coli ATCC 25922 incubated for 16 to 20 hrs in presence of 5% foetal bovine serum by broth microdilution method; assay type: functional; conditions: time 16-20 hrs
[10] = Genotoxicity in Salmonella typhimurium TA1537 assessed as number of revertants at 2x10^-4 mg/plate incubated for 72 hrs in presence of liver S9 fraction by Ames test (reference value: 20 +/- 5); assay type: toxicity, subcellular; conditions: salmonella enterica subsp. enterica serovar typhimurium, s9, 72 h
[11] = Genotoxicity in Salmonella typhimurium TA1535 assessed as number of revertants at 4x10^-5 mg/plate incubated for 72 hrs in presence of liver S9 fraction by Ames test (reference value: 15.33 +/- 2.52); assay type: toxicity, subcellular; conditions: salmonella enterica subsp. enterica serovar typhimurium, s9, 72 h
[12] = Toxicity in Kunming mouse infected with Staphylococcus aureus ATCC 25923 assessed as normal alveolar size and morphology at 20 to 40 mg/kg, iv measured after 1 hr by hematoxylin and eosin staining based microscopic analysis; assay type: organism-based; conditions: in vivo, dose 20-40 mg/kg
Staphylococcus aureus [13] = experiment: Antibacterial activity against Staphylococcus aureus ATCC 29213 at pH 7.4 incubated for 16 to 20 hrs by broth microdilution method; assay type: functional; conditions: time 16-20 hrs
Escherichia coli [14] = experiment: Antibacterial activity against Escherichia coli ATCC 25922 at pH 8 incubated for 16 to 20 hrs by broth microdilution method; assay type: functional; conditions: time 16-20 hrs

CC[C@H]1OC(=O)C[C@@H](O)[C@H](C)[C@@H](O[C@@H]2O[C@H](C)[C@@H](O)[C@H](N(C)C)[C@H]2O)[C@@H](CCN(C)Cc2cn(-c3cnc4ccccc4c3)nn2)C[C@@H](C)C(=O)/C=C/C(C)=C/[C@@H]1CN1CCCCCC1
Activity [1]: 433.33
MIC (Escherichia coli [2]): 1 µg/mL (≈ 1.11 µM)
Activity [3]: 13
MIC (Escherichia coli [4]): 32 µg/mL (≈ 35.5 µM)
MIC (Staphylococcus aureus [5]): 0.5 µg/mL
MIC (Staphylococcus aureus [6]): 0.0625 µg/mL (≈ 0.0693 µM)
MIC (Staphylococcus aureus [7]): 0.25 µg/mL (≈ 0.277 µM)
Activity [8]: 220.67
MIC (Escherichia coli [9]): 1 µg/mL
Activity [10]: 15
Activity [11]: 15
Activity [12]: Non-Toxic
MIC (Staphylococcus aureus [13]): 0.25 µg/mL (≈ 0.277 µM)
MIC (Escherichia coli [14]): 0.25 µg/mL (≈ 0.277 µM)
